Laboratory results: patent US9758527B2, “Cyclohexene derivative, preparation method therefor, and pharmaceutical composition for preventing or treating metabolic diseases, containing same as active ingredient” (HYUNDAI PHARM CO., LTD., priority 2014, dated 2017)
Like-named read-outs stand apart in the source and are kept apart here.

Target: T1, G protein-coupled receptor 119 (GPR-119) (Mesocricetus auratus, UniProt A0A1U8CD06)
T1 construct: hamster-derived β-cells containing G protein-coupled receptor 119 (GPR-119), HIT-T15 cells; host or cells: HIT-T15 (hamster pancreatic β-cells)
T1 sequence (A0A1U8CD06 1-334): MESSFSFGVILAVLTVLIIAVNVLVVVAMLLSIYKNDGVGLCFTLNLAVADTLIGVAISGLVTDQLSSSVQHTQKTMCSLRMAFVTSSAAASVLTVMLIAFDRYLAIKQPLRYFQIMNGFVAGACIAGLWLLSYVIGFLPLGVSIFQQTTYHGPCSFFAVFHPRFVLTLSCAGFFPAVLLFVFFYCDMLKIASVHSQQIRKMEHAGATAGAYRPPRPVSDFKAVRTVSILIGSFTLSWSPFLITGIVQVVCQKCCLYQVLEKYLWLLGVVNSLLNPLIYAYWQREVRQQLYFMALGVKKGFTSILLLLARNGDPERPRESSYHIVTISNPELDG
Experiment: Evaluation of cAMP activity in HIT-T15 cells (HTRF cAMP dynamic kit)
Type: cell-based, hamster
Details: cAMP activation
Description: To check whether the cyclohexene derivatives according to the present invention activate cyclic adenosine monophosphate (cAMP), experiments were carried out, as follows.
The HIT-T15 cells were plated on a 96-well plate at 60,000 cells per well. On the next day of plating, the cells were treated with a varying concentration of each of the example compounds according to the present invention, and incubated at 37° C. for an hour. In this case, each of the treated compounds was used at six concentrations, ranging from […], to treat the cells.
The cyclic adenosine monophosphate (cAMP) activity was measured according to the manufacturer's instruction using a cAMP dynamic kit commercially available from Cis Bio Inc. (Bedford, Mass.). The cells were lysed, and a level of cAMP was determined by a competitive immunoassay using D2-labeled cAMP and a cryptate-labeled anti-cAMP antibody. Fluorescence was read in Flex Station (Molecular Devices). […] Unlabeled cAMP in the cell lysate competed with the D2-labeled cAMP against the cryptate-labeled antibody. Since a decrease in the measured intensity of the FRET signals represents a level of cAMP in the cells, the cAMP activities of the compounds are calculated as a change in FRET signals by adjusting an amount of dimethyl sulfoxide (DMSO).

[1] = 1 h at 37° C., six concentrations, read-out: EC50

| EC50 [1] [nM] | EC50 (read-out: EC50 value) [nM] | Structure (SMILES) |
| --- | --- | --- |
| 40 | ≤ 50 | CC(C)(C)OC(=O)N1CCC(COc2ccc(C3=CCC(C(=O)NC4CC4)CC3)cc2)CC1 (stereo not drawn) [Example 2, tert-butyl 4-((4-(4-(cyclopropylcarbamoyl)cyclohex-1-enyl)phenoxy)methyl)piperidine-1-carboxylate] |
| 34 | ≤ 50 | CC(C)(C)OC(=O)N1CCC(COc2ccc(C3=CCC(C(=O)NCC(F)F)CC3)cc2)CC1 (stereo not drawn) [Example 3, tert-butyl 4-((4-(4-(2,2-difluoroethylcarbamoyl)cyclohex-1-enyl)phenoxy)methyl)piperidine-1-carboxylate] |
| 150 | – | CC(C)(C)OC(=O)N1CCC(COc2ccc(C3=CCC(C(=O)NC[C@@H](O)CO)CC3)cc2)CC1 (stereo partly drawn) [Example 4, tert-butyl 4-((4-(4-((R)-2,3-dihydroxypropylcarbamoyl)cyclohex-1-enyl)phenoxy)methyl)piperidine-1-carboxylate] |
| 29 | ≤ 50 | CC(C)(C)OC(=O)N1CCC(COc2ccc(C3=CCC(C(=O)N4CC[C@@H](O)C4)CC3)cc2)CC1 (stereo partly drawn) [Example 5, tert-butyl 4-((4-(4-((R)-3-hydroxypyrrolidine-1-carbonyl)cyclohex-1-enyl)phenoxy)methyl)piperidine-1-carboxylate] |
| 38 | ≤ 50 | CN(CCCO)C(=O)C1CC=C(c2ccc(OCC3CCN(C(=O)OC(C)(C)C)CC3)cc2)CC1 (stereo not drawn) [Example 6, tert-butyl 4-((4-(4-((3-hydroxypropyl)(methyl)carbamoyl)cyclohex-1-enyl)phenoxy)methyl)piperidine-1-carboxylate] |
| 13 | ≤ 50 | CC(C)(C)OC(=O)N1CCC(COc2ccc(C3=CCC(C(=O)N4CCOCC4)CC3)cc2)CC1 (stereo not drawn) [Example 7, tert-butyl 4-((4-(4-(morpholine-4-carbonyl)cyclohex-1-enyl)phenoxy)methyl)piperidine-1-carboxylate] |
| 90 | – | CCc1cnc(N2CCC(COc3ccc(C4=CCC(C(=O)N[C@H](C)CO)CC4)cc3)CC2)nc1 (stereo partly drawn) [Example 8, 4-(4-((1-(5-ethylpyrimidin-2-yl)piperidin-4-yl)methoxy)phenyl)-N-((R)-1-hydroxypropan-2-yl)cyclohex-3-enecarboxamide] |
| 75 | – | CCc1cnc(N2CCC(COc3ccc(C4=CCC(C(=O)NCCCO)CC4)cc3)CC2)nc1 (stereo not drawn) [Example 9, 4-(4-((1-(5-ethylpyrimidin-2-yl)piperidin-4-yl)methoxy)phenyl)-N-(3-hydroxypropyl)cyclohex-3-enecarboxamide] |
| 500 | – | CC(C)(C)OC(=O)N1CCC(COc2ccc(C3=CCC(C(=O)NC[C@@H](O)CO)CC3)nc2)CC1 (stereo partly drawn) [Example 10, tert-butyl 4-((6-(4-((R)-2,3-dihydroxypropylcarbamoyl)cyclohex-1-enyl)pyridin-3-yloxy)methyl)piperidine-1-carboxylate] |
| 110 | – | C[C@@H](CO)NC(=O)C1CC=C(c2ccc(OCC3CCN(C(=O)OC(C)(C)C)CC3)cn2)CC1 (stereo partly drawn) [Example 11, tert-butyl 4-((6-(4-((S)-1-hydroxypropan-2-ylcarbamoyl)cyclohex-1-enyl)pyridin-3-yloxy)methyl)piperidine-1-carboxylate] |
| 80 | – | CCc1cnc(N2CCC(COc3ccc(C4=CCC(C(=O)NC[C@@H](O)CO)CC4)cc3)CC2)nc1 (stereo partly drawn) [Example 12, N-((R)-2,3-dihydroxypropyl)-4-(4-((1-(5-ethylpyrimidin-2-yl)piperidin-4-yl)methoxy)phenyl)cyclohex-3-enecarboxamide] |
| 13 | ≤ 50 | CCc1cnc(N2CCC(COc3ccc(C4=CCC(C(=O)N5CCOCC5)CC4)cc3)CC2)nc1 (stereo not drawn) [Example 13, (4-(4-((1-(5-ethylpyrimidin-2-yl)piperidin-4-yl)methoxy)phenyl)cyclohex-3-enyl)(morpholino)methanone] |
| 370 | – | CCc1cnc(N2CCC(COc3ccc(C4=CCC(C(=O)NC(CO)CO)CC4)cc3)CC2)nc1 (stereo not drawn) [Example 15, N-(1,3-dihydroxypropan-2-yl)-4-(4-((1-(5-ethylpyrimidin-2-yl)piperidin-4-yl)methoxy)phenyl)cyclohex-3-enecarboxamide] |
| 13 | ≤ 50 | CCc1cnc(N2CCC(COc3ccc(C4=CCC(C(=O)N5CC[C@@H](O)C5)CC4)cc3)CC2)nc1 (stereo partly drawn) [Example 16, (4-(4-((1-(5-ethylpyrimidin-2-yl)piperidin-4-yl)methoxy)phenyl)cyclohex-3-enyl)((R)-3-hydroxypyrrolidin-1-yl)methanone] |
| 85 | – | CC(C)c1noc(N2CCC(COc3ccc(C4=CCC(C(=O)NC[C@@H](O)CO)CC4)cc3)CC2)n1 (stereo partly drawn) [Example 17, N-((R)-2,3-dihydroxypropyl)-4-(4-((1-(3-isopropyl-1,2,4-oxadiazol-5-yl)piperidin-4-yl)methoxy)phenyl)cyclohex-3-enecarboxamide] |
| 170 | – | CC(C)c1noc(N2CCC(COc3ccc(C4=CCC(C(=O)NC[C@H](O)CO)CC4)cc3)CC2)n1 (stereo partly drawn) [Example 18, N-((S)-2,3-dihydroxypropyl)-4-(4-((1-(3-isopropyl-1,2,4-oxadiazol-5-yl)piperidin-4-yl)methoxy)phenyl)cyclohex-3-enecarboxamide] |
| 110 | – | CC(C)c1noc(N2CCC(COc3ccc(C4=CCC(C(=O)N[C@@H](C)CO)CC4)cc3)CC2)n1 (stereo partly drawn) [Example 19, N-((S)-1-hydroxypropan-2-yl)-4-(4-((1-(3-isopropyl-1,2,4-oxadiazol-5-yl)piperidin-4-yl)methoxy)phenyl)cyclohex-3-enecarboxamide] |
| 90 | – | CC(C)c1noc(N2CCC(COc3ccc(C4=CCC(C(=O)N[C@H](C)CO)CC4)cc3)CC2)n1 (stereo partly drawn) [Example 20, N-((R)-1-hydroxypropan-2-yl)-4-(4-((1-(3-isopropyl-1,2,4-oxadiazol-5-yl)piperidin-4-yl)methoxy)phenyl)cyclohex-3-enecarboxamide] |
| 16 | ≤ 50 | CCc1cnc(N2CCC(COc3ccc(C4=CCC(C(=O)N(C)CCO)CC4)cc3)CC2)nc1 (stereo not drawn) [Example 21, 4-(4-((1-(5-ethylpyrimidin-2-yl)piperidin-4-yl)methoxy)phenyl)-N-(2-hydroxyethyl)-N-methylcyclohex-3-enecarboxamide] |
| 41 | ≤ 50 | CC(C)c1noc(N2CCC(COc3ccc(C4=CCC(C(=O)NCC(C)(C)CO)CC4)cc3)CC2)n1 (stereo not drawn) [Example 22, N-(3-hydroxy-2,2-dimethylpropyl)-4-(4-((1-(3-isopropyl-1,2,4-oxadiazol-5-yl)piperidin-4-yl)methoxy)phenyl)cyclohex-3-enecarboxamide] |
| 160 | – | CC(C)c1noc(N2CCC(COc3ccc(C4=CCC(C(=O)NC(CO)CO)CC4)cc3)CC2)n1 (stereo not drawn) [Example 23, N-(1,3-dihydroxypropan-2-yl)-4-(4-((1-(3-isopropyl-1,2,4-oxadiazol-5-yl)piperidin-4-yl)methoxy)phenyl)cyclohex-3-enecarboxamide] |
| 260 | – | C[C@@H](CO)NC(=O)C1CC=C(c2ccc(OCC3CCN(C(=O)OC(C)(C)C)CC3)nc2)CC1 (stereo partly drawn) [Example 24, tert-butyl 4-((5-(4-((S)-1-hydroxypropan-2-ylcarbamoyl)cyclohex-1-enyl)pyridin-2-yloxy)methyl)piperidine-1-carboxylate] |
| 210 | – | C[C@H](CO)NC(=O)C1CC=C(c2ccc(OCC3CCN(C(=O)OC(C)(C)C)CC3)nc2)CC1 (stereo partly drawn) [Example 25, tert-butyl 4-((5-(4-((R)-1-hydroxypropan-2-ylcarbamoyl)cyclohex-1-enyl)pyridin-2-yloxy)methyl)piperidine-1-carboxylate] |
| 250 | – | C[C@H](O)CNC(=O)C1CC=C(c2ccc(OCC3CCN(C(=O)OC(C)(C)C)CC3)nc2)CC1 (stereo partly drawn) [Example 26, tert-butyl 4-((5-(4-((S)-2-hydroxypropylcarbamoyl)cyclohex-1-enyl)pyridin-2-yloxy)methyl)piperidine-1-carboxylate] |
| 310 | – | C[C@@H](O)CNC(=O)C1CC=C(c2ccc(OCC3CCN(C(=O)OC(C)(C)C)CC3)nc2)CC1 (stereo partly drawn) [Example 27, tert-butyl 4-((5-(4-((R)-2-hydroxypropylcarbamoyl)cyclohex-1-enyl)pyridin-2-yloxy)methyl)piperidine-1-carboxylate] |
| 110 | – | CC(C)c1noc(N2CCC(COc3ccc(C4=CCC(C(=O)NC[C@@H](C)O)CC4)cc3)CC2)n1 (stereo partly drawn) [Example 28, N-((R)-2-hydroxypropyl)-4-(4-((1-(3-isopropyl-1,2,4-oxadiazol-5-yl)piperidin-4-yl)methoxy)phenyl)cyclohex-3-enecarboxamide] |
| 95 | – | CC(C)c1noc(N2CCC(COc3ccc(C4=CCC(C(=O)NC[C@H](C)O)CC4)cc3)CC2)n1 (stereo partly drawn) [Example 29, N-((S)-2-hydroxypropyl)-4-(4-((1-(3-isopropyl-1,2,4-oxadiazol-5-yl)piperidin-4-yl)methoxy)phenyl)cyclohex-3-enecarboxamide] |
